In US6110481A, “Controlled release device based on aqueous-organic partitioning in porous membranes” (Trustees of the Stevens Institute of Technology, priority 1994, dated 2000):

Experiments:
[1] = In vitro release from microporous hollow fibers into stirred water bath; format: physicochemical; conditions: 1 μm silicone-coated 240 μm Celgard fibers (with and without wax coating), octanol; experimental vs predicted for uncoated fibers
Description: Hollow fibers prepared as such may then be assembled in any fashion intended for controlled release purposes. Preliminary testing of the release kinetics of a selected agent is carried out by immersing a length of the hollow fiber with sealed ends in a stirred water bath and measuring the concentration of the agent in the water bath as it increased with time.
A coating on the outer surface of the fiber provides additional resistance to mass transfer. […] The controlled release of benzoic acid using silicone-coatedhollow fibers (with and without an additional wax coating) and octanol is shown in FIGS. 4A and 4B. For both Figures, the predicted results are based on a 240 μm uncoated fiber with the same membrane thickness, porosity and tortuosity. In FIG. 4A, a 240 μm Celgard® fiber was coated with a 1 μm silicone coating. In FIG. 4B, a 240 μm Celgard® fiber was coated with a 1 μm silicone coating, and an additional wax coating. In both experiments, the solvent was octanol and the diffusing species, benzoic acid.
Aqueous phase benzoic acid concentration was analyzed by a Hewlett-Packard HPLC model 1090, using a Hypersil ODS C-18 reverse phase column. A 40% acetonitrile -60% water (w/w) carrier and UV detector at 254 nm were used. The samples were injected manually into a […] sample loop. […] The distribution coefficient of benzoic acid between decanol and water was determined experimentally. […]

[2] = glassy hydrogel matrix, solvent activation system; cited from earlier work
[3] = from Reid et al., 1977, p. 576; cited from earlier work
[4] = Distribution coefficient of benzoic acid between decanol and water; format: physicochemical
From the text: Analytical solutions for non-coated, wetted fibers and for non-coated, non-wetted fibers were developed to predict the aqueous phase benzoic acid concentration as a function of time for nylon fibers as well as Celgard® X-20 […] and 400 μm I.D. fibers, both wetted and non-wetted. Predicted results were compared with experimental data (for wetted fibers only) in FIGS. 1, 2 and 3 for Celgard® X-20 240 μm I.D., Celgard® X-20 400 μm I.D. and Nylon 6 600 μm I.D. fibers, respectively. The hollow fiber dimensions and membrane porosities were supplied by the manufacturer. In the case of the silicone coated fibers, the coating thickness was estimated experimentally. The diffusivity of benzoic acid in decanol was estimated using the Wilke-Chang Equation. The diffusivity of benzoic acid in water was taken from Reid et al., Properties of Gases and Liquids, McGraw Hill Book Co., New York, 1977. […]
Aqueous phase benzoic acid concentration was analyzed by a Hewlett-Packard HPLC model 1090, using a Hypersil ODS C-18 reverse phase column. […] The distribution coefficient of benzoic acid between decanol and water was determined experimentally.

| Compound | effect of fiber coating on time to approach steady state [1] | release kinetics [2] | diffusion coefficient in water [3] | distribution coefficient (m), ratio of equilibrium solute concentration in organic solvent over that in water [4] |
| --- | --- | --- | --- | --- |
| O=C(O)c1ccccc1 [benzoic acid] | increases the time required for the system to approach steady state | zero order release kinetics | 1.2 × 10^-5 cm^2 /s | ~50 |
| Cn1c(=O)c2[nH]cnc2n(C)c1=O [theophylline] |  | zero order release kinetics |  |  |
